By Ki is commonly meant the dissociation constant of the complex between target and ligand, obtained from inhibition or displacement. As a reminder, the ED50 is the midpoint of the dose-response relation.

The structures appear in SMILES notation.

Consider one compound from US5274118A, “Process for preparing (2R)-methyl-4,4,4-trifluorobutylamine” (Imperial Chemical Industries PLC, priority 1990, dated 1993).

In data set [1] the target is T1, leukotrienes LTC4, LTD4 and/or LTE4 (Cavia porcellus, UniProt Q2NNR5).
T1 construct: from tissue
T1 sequence (Q2NNR5 1-340): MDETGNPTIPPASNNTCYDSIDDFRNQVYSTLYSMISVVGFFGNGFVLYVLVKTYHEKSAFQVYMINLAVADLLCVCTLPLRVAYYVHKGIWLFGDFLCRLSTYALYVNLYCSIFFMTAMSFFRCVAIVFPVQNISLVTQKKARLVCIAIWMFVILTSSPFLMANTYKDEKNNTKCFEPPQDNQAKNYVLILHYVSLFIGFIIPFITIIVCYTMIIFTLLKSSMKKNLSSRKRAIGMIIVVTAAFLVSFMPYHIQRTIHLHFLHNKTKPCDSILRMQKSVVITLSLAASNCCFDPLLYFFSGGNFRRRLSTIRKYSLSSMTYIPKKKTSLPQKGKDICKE
Put plainly: receptor-ligand binding assay described by Aharony. To be noted: typically determined.

The next data set relates to leukotriene LTD4. Put plainly: guinea-pig aerosol test (LTD4 aerosol challenge, onset of dyspnea). In kind it is in vivo. To be noted: guinea-pigs. As for the experimental part:
According to this procedure, guinea-pigs are pre-dosed with test compound as a solution in poly(ethylene glycol) (generally 1 hour) before an aerosol challenge of leukotriene LTD4 (starting with 2 ml of a 30 microgram/ml solution) and the effect of the test compound on the average time of leukotriene initiated change in breathing pattern (such as onset of dyspnea) recorded and compared with that in undosed, control guinea-pigs. Percent protection engendered by a test compound was calculated from the time delay to the onset of dyspnea compared to that for control animals.

In turn, `COc1cc(C(=O)NS(=O)(=O)c2ccccc2C)ccc1Cc1cn(C)c2ccc(C(=O)NC[C@H](C)CC(F)(F)F)cc12` [compound of formula I substantially in the form of the (R)-enantiomer, (R)-3-Methoxy-4-[1-methyl-5-(2-methyl-4,4,4-trifluorobutylcarbamoyl)indol-3-ylmethyl]-N-(2-methylphenylsulfonyl)benzamide] showed a Ki in data set [1] of 0.398 nM. Moreover, in the data set with leukotriene LTD4 (Cavia porcellus, oral administration, pre-dosed generally 1 hour before LTD4 aerosol challenge, read-out: ED50 (protection against LTD4-induced dyspnea)), the ED50 is 1.1 µmol/kg. Further, the untoward side-effects result in the data set on leukotriene LTD4 (oral, at several multiples of the minimum effective dose) is reported as “without any indication of untoward side-effects”.
